Measurements taken from PubChem BioAssay (NCI).
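Briefly, cells in 96-well plates were exposed to five compound concentrations for 48 h, and endpoints were estimated by linear interpolation. GI50: concentration for 50% inhibition of growth. At the TGI there is no net growth.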

Legend:
Experiment in all cases: DTP human tumour cell line panel, 48 h
786-0 renal = system: 786-0 renal
A498 renal = system: A498 renal
A549 NSCLC = system: A549 NSCLC
ACHN renal = system: ACHN renal
BT-549 breast = system: BT-549 breast
CAKI-1 renal = system: CAKI-1 renal
CCRF-CEM leukemia = system: CCRF-CEM leukemia
COLO 205 colon = system: COLO 205 colon
DU-145 prostate = system: DU-145 prostate
EKVX NSCLC = system: EKVX NSCLC
HCC-2998 colon = system: HCC-2998 colon
HCT-116 colon = system: HCT-116 colon
HCT-15 colon = system: HCT-15 colon
HL-60(TB) leukemia = system: HL-60(TB) leukemia
HOP-62 NSCLC = system: HOP-62 NSCLC
HOP-92 NSCLC = system: HOP-92 NSCLC
HS 578T breast = system: HS 578T breast
HT29 colon = system: HT29 colon
IGROV1 ovarian = system: IGROV1 ovarian
K-562 leukemia = system: K-562 leukemia
KM12 colon = system: KM12 colon
M14 melanoma = system: M14 melanoma
MALME-3M melanoma = system: MALME-3M melanoma
MCF7 breast = system: MCF7 breast
MDA-MB-231 breast = system: MDA-MB-231 breast
MDA-MB-435 = system: MDA-MB-435
MOLT-4 leukemia = system: MOLT-4 leukemia
NCI-H226 lung = system: NCI-H226 lung
NCI-H23 lung = system: NCI-H23 lung
NCI-H460 lung = system: NCI-H460 lung
NCI-H522 lung = system: NCI-H522 lung
NCI/ADR-RES ovarian = system: NCI/ADR-RES ovarian
OVCAR-4 ovarian = system: OVCAR-4 ovarian
OVCAR-5 ovarian = system: OVCAR-5 ovarian
OVCAR-8 ovarian = system: OVCAR-8 ovarian
PC-3 prostate = system: PC-3 prostate
RPMI-8226 leukemia = system: RPMI-8226 leukemia
RXF 393 renal = system: RXF 393 renal
SF-268 CNS = system: SF-268 CNS
SF-295 CNS = system: SF-295 CNS
SF-539 CNS = system: SF-539 CNS
SK-MEL-2 melanoma = system: SK-MEL-2 melanoma
SK-MEL-28 melanoma = system: SK-MEL-28 melanoma
SK-MEL-5 melanoma = system: SK-MEL-5 melanoma
SK-OV-3 ovarian = system: SK-OV-3 ovarian
SN12C renal = system: SN12C renal
SNB-19 CNS = system: SNB-19 CNS
SNB-75 CNS = system: SNB-75 CNS
SR leukemia = system: SR leukemia
SW-620 colon = system: SW-620 colon
T-47D breast = system: T-47D breast
TK-10 renal = system: TK-10 renal
U251 CNS = system: U251 CNS
UACC-257 melanoma = system: UACC-257 melanoma
UACC-62 melanoma = system: UACC-62 melanoma
UO-31 renal = system: UO-31 renal

O=C(NCCCNc1cc(-c2cn(-c3ccccc3)nc2-c2cccc(O)c2)ccn1)Nc1ccc(F)cc1
GI50 (786-0 renal): 0.855 µM
TGI (786-0 renal): 3.61 µM
GI50 (A498 renal): 1.21 µM
TGI (A498 renal): 4.96 µM
GI50 (A549 NSCLC): 3.12 µM
TGI (A549 NSCLC): 21.7 µM
GI50 (ACHN renal): 3.16 µM
TGI (ACHN renal): 14.2 µM
GI50 (BT-549 breast): 2.18 µM
TGI (BT-549 breast): 11.6 µM
GI50 (CAKI-1 renal): 2.04 µM
TGI (CAKI-1 renal): 10.7 µM
GI50 (CCRF-CEM leukemia): 1.42 µM
TGI (CCRF-CEM leukemia): 25 µM
GI50 (COLO 205 colon): 2.34 µM
TGI (COLO 205 colon): 6.28 µM
GI50 (DU-145 prostate): 4.22 µM
TGI (DU-145 prostate): 19.3 µM
GI50 (EKVX NSCLC): 2.74 µM
TGI (EKVX NSCLC): 9.51 µM
GI50 (HCC-2998 colon): 1.09 µM
TGI (HCC-2998 colon): 4.05 µM
GI50 (HCT-116 colon): 1.62 µM
TGI (HCT-116 colon): 5.82 µM
GI50 (HCT-15 colon): 0.936 µM
TGI (HCT-15 colon): 4.04 µM
GI50 (HL-60(TB) leukemia): 2.15 µM
TGI (HL-60(TB) leukemia): 14.2 µM
GI50 (HOP-62 NSCLC): 3.24 µM
TGI (HOP-62 NSCLC): 9.26 µM
GI50 (HOP-92 NSCLC): 0.86 µM
TGI (HOP-92 NSCLC): 4.97 µM
GI50 (HS 578T breast): 0.984 µM
TGI (HS 578T breast): 5.31 µM
GI50 (HT29 colon): 1.09 µM
TGI (HT29 colon): 4.99 µM
GI50 (IGROV1 ovarian): 1.23 µM
TGI (IGROV1 ovarian): 5.82 µM
GI50 (K-562 leukemia): 0.812 µM
TGI (K-562 leukemia): 25 µM
GI50 (KM12 colon): 2.61 µM
TGI (KM12 colon): 5.79 µM
GI50 (M14 melanoma): 1.57 µM
TGI (M14 melanoma): 5.85 µM
GI50 (MALME-3M melanoma): 0.826 µM
TGI (MALME-3M melanoma): 3.42 µM
GI50 (MCF7 breast): 2.32 µM
TGI (MCF7 breast): 6.04 µM
GI50 (MDA-MB-231 breast): 2.18 µM
TGI (MDA-MB-231 breast): 7.78 µM
GI50 (MDA-MB-435): 1.66 µM
TGI (MDA-MB-435): 5.05 µM
GI50 (MOLT-4 leukemia): 1.25 µM
TGI (MOLT-4 leukemia): 15.6 µM
GI50 (NCI-H226 lung): 3.39 µM
TGI (NCI-H226 lung): 8.91 µM
GI50 (NCI-H23 lung): 3.11 µM
TGI (NCI-H23 lung): 7.65 µM
GI50 (NCI-H460 lung): 2.35 µM
TGI (NCI-H460 lung): 5.88 µM
GI50 (NCI-H522 lung): 4.03 µM
TGI (NCI-H522 lung): 9.49 µM
GI50 (NCI/ADR-RES ovarian): 3.51 µM
TGI (NCI/ADR-RES ovarian): 12.5 µM
GI50 (OVCAR-4 ovarian): 1.46 µM
TGI (OVCAR-4 ovarian): 8.21 µM
GI50 (OVCAR-5 ovarian): 3.37 µM
TGI (OVCAR-5 ovarian): 9.12 µM
GI50 (OVCAR-8 ovarian): 2.13 µM
TGI (OVCAR-8 ovarian): 9.26 µM
GI50 (PC-3 prostate): 1.33 µM
TGI (PC-3 prostate): 8.92 µM
GI50 (RPMI-8226 leukemia): 0.865 µM
TGI (RPMI-8226 leukemia): 5.47 µM
GI50 (RXF 393 renal): 0.966 µM
TGI (RXF 393 renal): 4.85 µM
GI50 (SF-268 CNS): 2.61 µM
TGI (SF-268 CNS): 11.2 µM
GI50 (SF-295 CNS): 1.38 µM
TGI (SF-295 CNS): 4.84 µM
GI50 (SF-539 CNS): 1.98 µM
TGI (SF-539 CNS): 5.38 µM
GI50 (SK-MEL-2 melanoma): 4 µM
TGI (SK-MEL-2 melanoma): 10.1 µM
GI50 (SK-MEL-28 melanoma): 2.54 µM
TGI (SK-MEL-28 melanoma): 5.64 µM
GI50 (SK-MEL-5 melanoma): 1.64 µM
TGI (SK-MEL-5 melanoma): 4.83 µM
GI50 (SK-OV-3 ovarian): 3.12 µM
TGI (SK-OV-3 ovarian): 10.8 µM
GI50 (SN12C renal): 2.79 µM
TGI (SN12C renal): 8.37 µM
GI50 (SNB-19 CNS): 3.29 µM
TGI (SNB-19 CNS): 9.75 µM
GI50 (SNB-75 CNS): 0.543 µM
TGI (SNB-75 CNS): 3.18 µM
GI50 (SR leukemia): 1.51 µM
TGI (SR leukemia): 13.8 µM
GI50 (SW-620 colon): 3.04 µM
TGI (SW-620 colon): 6.73 µM
GI50 (T-47D breast): 1.89 µM
TGI (T-47D breast): 11 µM
GI50 (TK-10 renal): 6.78 µM
TGI (TK-10 renal): 20.3 µM
GI50 (U251 CNS): 2.05 µM
TGI (U251 CNS): 7.55 µM
GI50 (UACC-257 melanoma): 3.07 µM
TGI (UACC-257 melanoma): 7.54 µM
GI50 (UACC-62 melanoma): 3.14 µM
TGI (UACC-62 melanoma): 6.6 µM
GI50 (UO-31 renal): 1.58 µM
TGI (UO-31 renal): 9.7 µM
